Measurements reported in US9718828B2 (MERCK SHARP & DOHME CORP., priority 2011, dated 2017).
Like-named read-outs stand apart in the source and are kept apart here.

Biological target: hBTK (full-length BTK, 6HIS-tag cleaved) (Homo sapiens (Human), UniProt Q06187)
Assay: BTK enzymatic activity, LANCE TR-FRET assay (Assay Method C)
Type: biochemical
Conditions: 50 pM hBTK, 25 μM ATP
[1] = LANCE TR-FRET, class 100-1000 is given as ≧100 nM-<1 μM, read-out: IC50 Btk activity values - Assay Method C

hBTK (full-length BTK, 6HIS-tag cleaved), sequence (Q06187 whole entry): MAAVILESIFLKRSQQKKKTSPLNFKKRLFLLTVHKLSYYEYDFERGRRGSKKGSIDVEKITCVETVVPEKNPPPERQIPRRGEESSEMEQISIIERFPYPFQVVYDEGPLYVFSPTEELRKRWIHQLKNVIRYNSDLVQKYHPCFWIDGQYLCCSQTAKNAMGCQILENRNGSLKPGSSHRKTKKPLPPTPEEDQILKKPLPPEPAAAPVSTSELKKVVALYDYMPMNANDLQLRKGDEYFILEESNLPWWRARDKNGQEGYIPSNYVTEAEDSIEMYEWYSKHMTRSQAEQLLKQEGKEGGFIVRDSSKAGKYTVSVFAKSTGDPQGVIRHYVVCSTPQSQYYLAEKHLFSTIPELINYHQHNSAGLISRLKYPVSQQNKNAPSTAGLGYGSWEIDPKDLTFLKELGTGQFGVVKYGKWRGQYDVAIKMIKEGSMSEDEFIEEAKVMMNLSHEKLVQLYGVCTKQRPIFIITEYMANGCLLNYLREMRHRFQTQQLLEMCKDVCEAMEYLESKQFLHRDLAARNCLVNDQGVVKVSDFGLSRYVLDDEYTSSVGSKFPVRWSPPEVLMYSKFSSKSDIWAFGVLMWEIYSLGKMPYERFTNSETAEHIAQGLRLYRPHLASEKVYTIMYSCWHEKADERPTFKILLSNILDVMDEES

Row | IC50 [1] [nM] | IC50 (Table D, Assay Method C (LANCE TR-FRET), read-out: IC50 BTK activity value) [nM] | Structure (SMILES)
1 | < 10 |  | CCC(=O)N1CCC[C@@H](c2nc(-c3ccc(C(=O)Nc4cc(C(F)(F)F)ccn4)cc3OC)c3c(N)nccn23)C1 [Example 490, 4-{8-amino-3-[(3R)-1-propanoylpiperidin-3-yl]imidazo[1,5-a]pyrazin-1-yl}-3-methoxy-N-[4-(trifluoromethyl)pyridin-2-yl]benzamide]
2 | < 10 |  | COCCN1CCO[C@@H](c2nc(-c3ccc(C(=O)Nc4cc(C(F)(F)F)ccn4)cc3)c3c(N)nccn23)C1 [Example 491, (R)-4-(8-amino-3-(4-(2-methoxyethyl)morpholin-2-yl)imidazo[1,5-a]pyrazin-1-yl)-N-(4-(trifluoromethyl)pyridin-2-yl)benzamide]
3 | < 10 |  | Nc1nccn2c([C@H]3CN(CCO)CCO3)nc(-c3ccc(C(=O)Nc4cc(C(F)(F)F)ccn4)cc3)c12 [Example 492, (R)-4-(8-amino-3-(4-(2-hydroxyethyl)morpholin-2-yl)imidazo[1,5-a]pyrazin-1-yl)-N-(4-(trifluoromethyl)pyridin-2-yl)benzamide]
4 | < 10 |  | CN1CC(C(=O)N2CCO[C@@H](c3nc(-c4ccc(C(=O)Nc5cc(C(F)(F)F)ccn5)cc4)c4c(N)nccn34)C2)C1 [Example 501, 4-(8-amino-3-{(2R)-4-[(1-methylazetidin-3-yl)carbonyl]morpholin-2-yl}imidazo[1,5-a]pyrazin-1-yl)-N-[4-(trifluoromethyl)pyridin-2-yl]benzamide]
5 | < 10 |  | CSCCC(=O)N1CCO[C@@H](c2nc(-c3ccc(C(=O)Nc4cc(C(F)(F)F)ccn4)cc3)c3c(N)nccn23)C1 [Example 502, 4-(8-amino-3-{(2R)-4-[3-(methylsulfanyl)propanoyl]morpholin-2-yl}imidazo[1,5-a]pyrazin-1-yl)-N-[4-(trifluoromethyl)pyridin-2-yl]benzamide]
6 | < 10 |  | CCOCCC(=O)N1CCO[C@@H](c2nc(-c3ccc(C(=O)Nc4cc(C(F)(F)F)ccn4)cc3)c3c(N)nccn23)C1 [Example 503, 4-{8-amino-3-[(2R)-4-(3-ethoxypropanoyl)morpholin-2-yl]imidazo[1,5-a]pyrazin-1-yl}-N-[4-(trifluoromethyl)pyridin-2-yl]benzamide]
7 | < 10 |  | Nc1ncc(Cl)n2c([C@H]3CNCCO3)nc(-c3ccc(C(=O)Nc4cc(C(F)(F)F)ccn4)cc3)c12 [Example 504, 4-{8-amino-5-chloro-3-[(2R)-morpholin-2-yl]imidazo[1,5-a]pyrazin-1-yl}-N-[4-(trifluoromethyl)pyridin-2-yl]benzamide]
8 | < 10 |  | CC1(C(=O)N2CCO[C@@H](c3nc(-c4ccc(C(=O)Nc5cc(C(F)(F)F)ccn5)cc4)c4c(N)ncc(Cl)n34)C2)COC1 [Example 505, 4-(8-amino-5-chloro-3-{(2R)-4-[(3-methyloxetan-3-yl)carbonyl]morpholin-2-yl}imidazo[1,5-a]pyrazin-1-yl)-N-[4-(trifluoromethyl)pyridin-2-yl]benzamide]
9 | 10 to 100 |  | Cc1cnc(N)c2c(-c3ccc(C(=O)Nc4cc(C(F)(F)F)ccn4)cc3)nc([C@H]3CN(C(=O)C4(C)COC4)CCO3)n12 [Example 506, 4-(8-amino-5-methyl-3-{(2R)-4-[(3-methyloxetan-3-yl)carbonyl]morpholin-2-yl}imidazo[1,5-a]pyrazin-1-yl)-N-[4-(trifluoromethyl)pyridin-2-yl]benzamide]
10 | < 10 |  | CC1(CN2CCO[C@@H](c3nc(-c4ccc(C(=O)Nc5cc(C(F)(F)F)ccn5)cc4)c4c(N)nccn34)C2)COC1 [Example 507, 4-(8-amino-3-{(2R)-4-[(3-methyloxetan-3-yl)methyl]morpholin-2-yl}imidazo[1,5-a]pyrazin-1-yl)-N-[4-(trifluoromethyl)pyridin-2-yl]benzamide]
11 | < 10 |  | Nc1nccn2c([C@H]3CN(CC4CC4)CCO3)nc(-c3ccc(C(=O)Nc4cc(C(F)(F)F)ccn4)cc3)c12 [Example 508, 4-{8-amino-3-[(2R)-4-(cyclopropylmethyl)morpholin-2-yl]imidazo[1,5-a]pyrazin-1-yl}-N-[4-(trifluoromethyl)pyridin-2-yl]benzamide]
12 | < 10 |  | Cc1cnc(N)c2c(-c3ccc(C(=O)Nc4cc(C(F)(F)F)ccn4)cc3)nc([C@H]3CN(Cc4cnn(C)c4)CCO3)n12 [Example 509, 4-(8-amino-5-methyl-3-{(2R)-4-[(1-methyl-1H-pyrazol-4-yl)methyl]morpholin-2-yl}imidazo[1,5-a]pyrazin-1-yl)-N-[4-(trifluoromethyl)pyridin-2-yl]benzamide]

More lines, now with the values behind:

Row | Structure (SMILES) | IC50 [1] [nM] | IC50 (Table D, Assay Method C (LANCE TR-FRET), read-out: IC50 BTK activity value) [nM]
13 | C[C@H](O)c1cnc(N)c2c(-c3ccc(C(=O)Nc4cc(C(F)(F)F)ccn4)cc3)nc([C@@H]3CCCN(C(=O)C4(C)COC4)C3)n12 [Example 466, 4-(8-amino-5-[(1S)-1-hydroxyethyl]-3-{(3R)-1-[(3-methyloxetan-3-yl)carbonyl]piperidin-3-yl}imidazo[1,5-a]pyrazin-1-yl)-N-[4-(trifluoromethyl)pyridin-2-yl]benzamide] | < 10 | 
14 | CO[C@H](C)c1cnc(N)c2c(-c3ccc(C(=O)Nc4cc(C(F)(F)F)ccn4)cc3)nc([C@@H]3CCCN(C(=O)C4(C)COC4)C3)n12 [Example 467, 4-(8-amino-5-[(1R)-1-methoxyethyl]-3-{(3R)-1-[(3-methyloxetan-3-yl)carbonyl]piperidin-3-yl}imidazo[1,5-a]pyrazin-1-yl)-N-[4-(trifluoromethyl)pyridin-2-yl]benzamide] | < 10 | 
15 | CO[C@@H](C)c1cnc(N)c2c(-c3ccc(C(=O)Nc4cc(C(F)(F)F)ccn4)cc3)nc([C@@H]3CCCN(C(=O)C4(C)COC4)C3)n12 [Example 468, 4-(8-amino-5-[(1S)-1-methoxyethyl]-3-{(3R)-1-[(3-methyloxetan-3-yl)carbonyl]piperidin-3-yl}imidazo[1,5-a]pyrazin-1-yl)-N-[4-(trifluoromethyl)pyridin-2-yl]benzamide] | < 10 | 
16 | CC1(C(=O)N2CCC[C@@H](c3nc(-c4ccc(C(=O)Nc5cc(C(F)(F)F)ccn5)cc4)c4c(N)ncc(C5(O)COC5)n34)C2)COC1 [Example 469, 4-[8-amino-5-(3-hydroxyoxetan-3-yl)-3-{(3R)-1-[(3-methyloxetan-3-yl)carbonyl]piperidin-3-yl}imidazo[1,5-a]pyrazin-1-yl]-N-[4-(trifluoromethyl)pyridin-2-yl]benzamide] | 10 to 100 | 
17 | CC1(C(=O)N2CCC[C@@H](c3nc(-c4ccc(C(=O)Nc5cc(C(F)(F)F)ccn5)cc4)c4c(N)ncc(C(F)(F)F)n34)C2)COC1 [Example 470, 4-[8-amino-3-{(3R)-1-[(3-methyloxetan-3-yl)carbonyl]piperidin-3-yl}-5-(trifluoromethyl)imidazo[1,5-a]pyrazin-1-yl]-N-[4-(trifluoromethyl)pyridin-2-yl]benzamide] | < 10 | 
18 | CC1(C(=O)N2CCC[C@@H](c3nc(-c4ccc(C(=O)Nc5cc(C(F)(F)F)ccn5)cc4)c4c(N)ncc(CO)n34)C2)COC1 [Example 471, 4-[8-amino-5-(hydroxymethyl)-3-{(3R)-1-[(3-methyloxetan-3-yl)carbonyl]piperidin-3-yl}imidazo[1,5-a]pyrazin-1-yl]-N-[4-(trifluoromethyl)pyridin-2-yl]benzamide] | < 10 | 
19 | C[C@H]1CC[C@@H](c2nc(-c3ccc(C(=O)Nc4cc(C(F)(F)F)ccn4)c(F)c3)c3c(N)nccn23)CN1C(=O)C1(C)COC1 [Example 476, 4-(8-amino-3-{(3R,6S)-6-methyl-1-[(3-methyloxetan-3-yl)carbonyl]piperidin-3-yl}imidazo[1,5-a]pyrazin-1-yl)-2-fluoro-N-[4-(trifluoromethyl)pyridin-2-yl]benzamide] | < 10 | 0.322
20 | CC1(C(=O)N2CCC[C@@H](c3nc(-c4ccc(C(=O)Nc5cc(OC(F)F)ccn5)cc4F)c4c(N)nccn34)C2)COC1 [Example 478, 4-(8-amino-3-{(3R)-1-[(3-methyloxetan-3-yl)carbonyl]piperidin-3-yl}imidazo[1,5-a]pyrazin-1-yl)-N-[4-(difluoromethoxy)pyridin-2-yl]-3-fluorobenzamide] | < 10 | 
21 | CCCOc1ccnc(NC(=O)c2ccc(-c3nc([C@@H]4CCCN(C(=O)C5(C)COC5)C4)n4ccnc(N)c34)c(F)c2)c1 [Example 481, 4-(8-amino-3-{(3R)-1-[(3-methyloxetan-3-yl)carbonyl]piperidin-3-yl}imidazo[1,5-a]pyrazin-1-yl)-3-fluoro-N-(4-propoxypyridin-2-yl)benzamide] | < 10 | 
22 | CC1(C(=O)N2CCC[C@@H](c3nc(-c4ccc(C(=O)Nc5cc(C(C)(F)F)ccn5)cc4F)c4c(N)nccn34)C2)COC1 [Example 484, 4-(8-amino-3-{(3R)-1-[(3-methyloxetan-3-yl)carbonyl]piperidin-3-yl}imidazo[1,5-a]pyrazin-1-yl)-N-[4-(1,1-difluoroethyl)pyridin-2-yl]-3-fluorobenzamide] | < 10 | 
23 | CCC(=O)N1CCC[C@@H](c2nc(-c3ccc(C(=O)Nc4cc(C(F)(F)F)ccn4)cc3F)c3c(N)nccn23)C1 [Example 487, 4-{8-amino-3-[(3R)-1-propanoylpiperidin-3-yl]imidazo[1,5-a]pyrazin-1-yl}-3-fluoro-N-[4-(trifluoromethyl)pyridin-2-yl]benzamide] | < 10 | 
24 | CCC(=O)N1CCC[C@@H](c2nc(-c3ccc(C(=O)Nc4cc(C(F)F)ccn4)cc3F)c3c(N)nccn23)C1 [Example 488, 4-{8-amino-3-[(3R)-1-propanoylpiperidin-3-yl]imidazo[1,5-a]pyrazin-1-yl}-N-[4-(difluoromethyl)pyridin-2-yl]-3-fluorobenzamide] | < 10 | 
25 | Nc1nccn2c([C@@H]3CCCN(C(=O)NC4CC4)C3)nc(-c3ccc(C(=O)Nc4cc(C(F)(F)F)ccn4)cc3F)c12 [Example 489, (3R)-3-[8-amino-1-(2-fluoro-4-{[4-(trifluoromethyl)pyridin-2-yl]carbamoyl}phenyl)imidazo[1,5-a]pyrazin-3-yl]-N-cyclopropylpiperidine-1-carboxamide] | < 10 | 
